Reference: patent publication US6858434B1, “Method for synthesis, separation and screening of a plurality of compounds in the same bulk of a stationary phase” (Sinvent AS, priority 1999, dated 2005)

Tested on: Serracia marcescens
Assay: agar overlay screening for antimicrobial activity on the TLC plate
Type: cell-based
Conditions: agar gel containing Serracia marcescens poured over the TLC plate, left overnight at room temperature

## c1ccc(CN2CCCC2)cc1 [product]
  antibacterial activity (white inhibition zones around the spot): antibacterial activity
